Where two headings read alike, the source gives them in different places. Some results are limits rather than exact numbers.

The term EC50 denotes the midpoint of the concentration-response curve. A word on the CC50: it is the concentration that lowers cell viability or growth by half. Low readings indicate harm at low concentration, high ones better tolerance by the cells. What is called MIC is the least concentration at which growth counts as inhibited. Higher therefore signals a need for much substance.

The subject of one series is S. mansoni schistosomula. The series is described as follows: Screening of S. mansoni schistosomula (Roboworm, motility and phenotype). The series is classed as cell-based, Schistosoma mansoni. The conditions noted are these: for EC50: Schistosoma mansoni; for Selectivity index, schistosomula motility: HepG2 CC50 / schistosomula motility EC50; for Selectivity index, schistosomula phenotype: HepG2 CC50 / schistosomula phenotype EC50. On the procedure: Biomphalaria glabrata (NMRI and the previously described pigmented strains) snails infected with S. mansoni (Puerto Rican strain) were shed for 2 hrs under light at 26 °C. Cercariae were collected, mechanically transformed into schistosomula and subsequently prepared for high throughput screening (HTS) on the Roboworm platform as previously described. Schistosomula were cultured in Basch Media (composed of BME media, 10% M169 media, 0.5x MEM vitamins, 10% Schneider’s insect media, 15.6mM Hepes, 5% heat inactivated FBS, 2x Antibiotic/anti-mycotic (Sigma-Aldrich, UK) solution (final concentrations shown)).
EC50 values were calculated from the titrated concentrations by non-linear regression, after log transformation of concentrations and data normalization using GraphPad Prism 7.02.
Fig 2 Anti-schistosomula activity of the eight analogues compared to parent compound 1. […] Test plates were incubated at 37°C for 72 hrs in an atmosphere containing 5% CO2. At 72hrs, schistosomula were scored using the Roboworm platform for both motility (A) and phenotype (B). Any compound that induced a score of below -0.35 for motility (A) and -0.15 for phenotype (B) were considered a hit. Black squares indicate the most positive effect on motility or phenotype; grey scale from dark grey to lighter shades of grey indicates a progressive reduced compound efficacy; white squares indicate no effect on either phenotype or motility. Z´ values for this screen was 0.41741 for motility and 0.57275 for phenotype. (C) Phenotypes of schistosomula when treated with 10μM of each of the test compounds and controls.
Supplementary file pntd.0008630.s003.tif: S1 Fig Initial schistosomula screens of the 14 compounds and their intermediate analogues. […] Test plates were incubated at 37°C for 72 hrs in an atmosphere containing 5% CO2. At 72hrs, schistosomula were scored using the Roboworm platform for both motility and phenotype as previously described. A) Of the 14 compounds evaluated, two fell within the hit region. Z’ scores for motility and phenotype were 0.40079 and 0.56846 respectively. […] Z´ scores for motility and phenotype were 0.37864 and 0.47882 respectively. *Average EC50 value across motility and phenotype is presented for each compound. (TIF) Click here for additional data file.

Series [1] deals with adult S. mansoni worm pairs. The series can be described thus: Screening of adult S. mansoni blood flukes (7-week worms), WHO-TDR motility scoring. In kind it is cell-based, Schistosoma mansoni. The conditions noted are these: for EC50: 7-week worms, motility, 95% confidence interval; for EC50 / effect on adult worm motility/lethality: 72 hr; for effect on adult worm motility/lethality: highest dose 20 μM. On the procedure: (§1) Adult S. mansoni parasites were recovered by hepatic portal vein perfusion from TO outbred mice (HsdOla:TO, Tuck-Ordinary, Envigo, UK) that were percutaneously infected seven weeks earlier with 180 cercariae. Three adult worm pairs per well, in duplicate, were transferred into 48 well plates (Fisher Scientific, Loughborough, UK) and cultured at 37 °C in an atmosphere containing 5% CO2 in DMEM (Gibco, Paisley, UK) containing 10% v/v HEPES, 10% v/v Foetal Bovine Serum (FBS), 0.7% v/v 200 mM L-Glutamine and 1X v/v penicillin-streptomycin. Worms were dosed with test compounds at 20 μM, 10 μM, 5 μM, 2.5 μM, 1.25 μM and 0.625 μM (in 0.2% DMSO) for 72 hr. Adult worms were scored manually at 72 hr using the WHO-TDR metric scoring system as described previously. Dose response curves and EC50 values were obtained by non-linear regression, after log transformation of concentrations and data normalization using GraphPad Prism 7.02. At 72 hr, the medium from each well was also collected, centrifuged at 350 x g for 2 min. Afterwards, the supernatant was removed, and the remaining egg pellet re-suspended in 10% v/v formalin. Eggs that were oval and contained a fully formed lateral spine were subsequently counted.
(§2) Fig 3 Adult schistosome motility and egg production are differentially affected by the nine N-acyl homoserine lactones. […] Parasite motility was evaluated for each sex and scored using the WHO-TDR scoring system (0 = Dead parasite, 4 = Normal/Healthy movement). B) Culture media were collected from some adult co-cultures at 72 hrs and eggs present in the media were counted. p values are indicated as follows: * <0.05, ** <0.01, *** <0.001.
Initially, these screens were conducted at 20 μM; any compounds that scored a 1 or 0 for motility at this primary concentration were further titrated until no further effect was observed. […] Similar to the schistosomula assays, the differences observed in adult parasite motility when treated with the (R)- and (S)- enantiomers of Compound 1 were striking. […] Estimated EC50s for male and female parasites for these two enantiomers were determined (Table 2), with Compound 5 ((R)- enantiomer) having greater activity than Compound 6 ((S)- enantiomer).

Series [2] is described as follows: Cell cytotoxicity assay (MTT). The conditions noted are these: human, HepG2 cells, MTT, 95% confidence interval, called EC50. The series is classed as cell-based, human.
Experimental: The cytotoxicity of each compound was assessed on human HepG2 cells as described previously [17]. Briefly, 2 x 10^4 cells/well were seeded in black walled 96-well microtiter plates (Fisher Scientific, Loughborough, UK) and incubated for 24 hr at 37°C in a humidified atmosphere containing 5% CO2. […] Following a further incubation for 24 hr, the MTT assay was performed as previously described [17, 27]. Dose response curves were obtained by non-linear regression, after log transformation of concentrations and data normalization using GraphPad Prism 7.02.
Series [3] deals with adult S. mansoni worm pairs (egg production). The series can be described thus: In vitro egg production of adult S. mansoni worm pairs. The series is classed as cell-based, Schistosoma mansoni. The conditions noted are these: 72 hr, compared to DMSO. The protocol: as §1, §2
As morbidity associated with schistosomiasis is caused by egg-induced granuloma formation in tissues and the subsequent development of fibrotic lesions around these granulomas, compound-mediated modulation of in vitro egg production (as a surrogate for the in vivo pathology initiator) was next assessed (Fig 3B). […] In comparison to the negative control DMSO, in which egg counts ranged from 300–594 (Average—408), all N-Acyl homoserine lactones affected fecundity.

Another series has as its system S. aureus ATCC 29213. The series is described as follows: Broth microdilution MIC and IC50 determination, S. aureus. The conditions noted are these: Staphylococcus aureus, ATCC29213, 24 h, 24 hr. The series is classed as cell-based, Staphylococcus aureus. The protocol:
(§3) S. aureus ATCC 29213 and E. coli ATCC 25922 were cultured in Luria-Bertani (LB) medium at 37°C with aeration at 200 rpm for 24 hr, with all procedures performed in a biosafety level 2 (BSL2) cabinet. Stationary phase cultures were then used for minimum inhibitory concentration (MIC) determination using the broth microdilution method, in fresh LB medium, in a 96-well plate. All compounds were tested in triplicate using an initial bacterial concentration of 5.0 × 10^5 colony forming units (CFU)/mL at a final concentration of 125 mg/L (5% and 2.5% v/v methanol). Compounds with no visible growth at 125 mg/L were further evaluated with progressing dilutions. […] Dilutions were repeated in three independent experiments where the optical density (OD600) was measured in a Hidex plate spectrophotometer and absorbance data used for the calculation of an IC50 value. The IC50 value was obtained from a dose response titration (125–0.09 mg/L). Dose response curves were obtained by non-linear regression, after log transformation of concentrations and data normalization using GraphPad Prism 7.02.
(§4) As Compound 1 was structurally similar to N-acyl homoserine lactones, a compound class involved in bacterial quorum sensing, we decided to assess its antimicrobial activity and determine if enantiomer separation or lactone ring substitution would change this activity.

The test system of the next series is E. coli ATCC 25922. The series is described as follows: Broth microdilution MIC and IC50 determination, E. coli. The conditions noted are these: Escherichia coli, ATCC25922, 24 h, 24 hr. The series is classed as cell-based. On the procedure:
as §3, §4

Series [4] concerns juvenile S. mansoni worms. The series is described as follows: Propidium iodide (PI) staining of juvenile S. mansoni worms. The series is classed as cell-based, Schistosoma mansoni. The conditions noted are these: 15 μM, 72 hrs. The protocol:
Juvenile S. mansoni parasites were recovered via hepatic portal vein perfusion from TO outbred mice (HsdOla:TO, Tuck-Ordinary, Envigo, UK) that were infected percutaneously three weeks earlier with 4000 cercariae. Preparation and centrifugation of juvenile worms have been described previously. […] After motility quantification, 2 μg/mL of PI was added to each well and the plate returned to 37°C, 5% CO2 for 15 minutes. Each well was subsequently imaged on the Roboworm platform using brightfield and fluorescent microscopy (excitation wavelength = 580 nm; emission wavelength = 604 nm). The number of PI positive vs PI negative juvenile worms were cross-checked with the motility scores obtained by our scoring matrix, and the data reported as percentage of PI positive across all parasites within the well. EC50 values were calculated from the motility scores obtained from the dose response titration (as detailed above) and dose response curves were obtained by non-linear regression, after log transformation of concentrations and data normalization using GraphPad Prism 7.02.
Three week juvenile schistosomes, incubated with compounds (1), (3) or controls for 72 hrs, were subsequently cultured with PI at a final concentration of 2 μg/mL for 15 minutes at 37 °C in an environment containing 5% CO2. PI positive parasites (dead) were counted and the percent live vs dead in each well is indicated. A) Quantification of compound (1) mediated juvenile death. B) Quantification of compound (3) mediated juvenile death.

The mark [5] stands for this setting: 72 hrs, 95% confidence interval, read-out: SCHISTOSOMULA EC50 Motility.
The mark [6] stands for this setting: 72 hrs, 95% confidence interval, read-out: SCHISTOSOMULA EC50 Phenotype.
The mark [7] stands for this setting: Schistosoma mansoni, read-out: ADULT WORM EC50 Female.
The mark [8] stands for this setting: Schistosoma mansoni, read-out: ADULT WORM EC50 Male.

`CC(Br)C(=O)NC1CCOC1=O` (centres unmarked) [Compound 2, 2-bromo-N-(2-oxotetrahydrofuran-3-yl)propanamide]: the EC50 in the series on S. mansoni schistosomula (setting [5]) was above 10 µM; with S. mansoni schistosomula (setting [6]) it was above 10 µM; in series [1] (setting [7]), above 20 µM; in series [1] (setting [8]) it was above 20 µM. The “effect on adult worm motility/lethality” value in series [1] is on record as “no activity”. In addition, the CC50 at 24 h in series [2] is above 200 µM.
Regarding `CC(Br)C(=O)NC1CCSC1=O` (centres unmarked) [Compound 4, 2-bromo-N-(2-oxotetrahydrothiophen-3-yl)propanamide], the “Selectivity index, schistosomula motility” value with S. mansoni schistosomula is given as 15.4. Moreover, the “Selectivity index, schistosomula phenotype” value in the series on S. mansoni schistosomula is reported as 14.4. The EC50 in series [1] (read-out: ADULT WORM EC50 Female) is above 10 µM; in series [1] (read-out: ADULT WORM EC50 Male), above 10 µM; in series [1] (setting [7]), 18.4 µM; in series [1] (setting [8]) it was 10.5 µM. For the same compound, the “effect on adult worm motility/lethality” value in series [1] is given as “only demonstrated lethality at the highest concentration”.
With `O=C(CBr)N[C@@H]1CCOC1=O` [Compound 5, (R)-2-bromo-N-(2-oxotetrahydrofuran-3-yl)acetamide], the “Selectivity index, schistosomula motility” value with S. mansoni schistosomula is given as 16.3. Also, the “Selectivity index, schistosomula phenotype” value in the series on S. mansoni schistosomula came to 12.7. Moreover, the EC50 was 3.1 µM in the series with S. mansoni schistosomula (setting [5]), 4 µM with S. mansoni schistosomula (setting [6]), above 10 µM in series [1] (setting [7]) and above 10 µM in series [1] (setting [8]). Besides, in series [1], the “effect on adult worm motility/lethality” value is given as “complete immobility”. The “effect on egg production (fecundity)” value in series [3] is recorded as “reduced egg production”. In series [2], this compound gave a CC50 at 24 h of 50.6 µM. In addition, the MIC against S. aureus ATCC 29213 (no visible growth) is 125 µg/mL; against S. aureus ATCC 29213 (value in square brackets), 563 µM; with E. coli ATCC 25922 (no visible growth), 125 µg/mL; against E. coli ATCC 25922 (value in square brackets), 563 µM.
Regarding `O=C(CBr)N[C@H]1CCOC1=O` [Compound 6, (S)-2-bromo-N-(2-oxotetrahydrofuran-3-yl)acetamide], the EC50 with S. mansoni schistosomula (setting [5]) was above 10 µM; in the series with S. mansoni schistosomula (setting [6]), above 10 µM; in series [1] (setting [7]) it was above 20 µM. In the series on S. mansoni schistosomula (titration 10 to 0.625 μM, 72 hrs), the “anti-schistosomula activity (phenotype and motility)” value is reported as “no anti-schistosomula activity was observed”. The “Selectivity index, adult worm male” value in series [1] (HepG2 CC50 / adult male EC50) is 6.3. In series [1], the “effect on adult worm motility/lethality” value was “did not have this effect”. Besides, the “effect on egg production (fecundity)” value in series [3] is “reduced egg production”. The compound further showed a CC50 at 24 h in series [2] above 100 µM. The MIC with S. aureus ATCC 29213 (no visible growth) is above 125 µg/mL; against S. aureus ATCC 29213 (value in square brackets), above 563 µM; against E. coli ATCC 25922 (no visible growth), above 125 µg/mL; in the series with E. coli ATCC 25922 (value in square brackets), above 563 µM.
`O=C(CCl)NC1CCOC1=O` (centres unmarked) [Compound 7, 2-chloro-N-(2-oxotetrahydrofuran-3-yl)acetamide]: the “effect on adult worm motility/lethality” value in series [1] is on record as “No lethality/motility defects were observed”.
As for `O=C(CCl)NC1CCSC1=O` (centres unmarked) [Compound 8, 2-chloro-N-(2-oxotetrahydrothiophen-3-yl)acetamide], the “effect on adult worm motility/lethality” value in series [1] is on record as “No lethality/motility defects were observed”.
For `CC(Cl)C(=O)NC1CCOC1=O` (centres unmarked) [Compound 9, 2-chloro-N-(2-oxotetrahydrofuran-3-yl)propanamide], the “effect on adult worm motility/lethality” value in series [1] is reported as “No lethality/motility defects were observed”.
Regarding `O[C@H]([C@H](O)COC(c1ccccc1)(c1ccccc1)c1ccccc1)[C@@H](O)COC(c1ccccc1)(c1ccccc1)c1ccccc1` [Compound E, (2R,3s,4S)-1,5-bis(trityloxy)pentane-2,3,4-triol], the “effect on schistosomula motility and phenotype metrics in initial screen” value in the series with S. mansoni schistosomula (10 μM, 72 hrs) is “negatively affected both schistosomula motility and phenotype metrics”. Besides, in the series with S. mansoni schistosomula (72 h, read-out: average EC50 for phenotype and motility, schistosomula), the half-maximal effective concentration (EC50) worked out at 5.6 µM.
With `CC(=O)OC[C@H]1O[C@@H]([S-])[C@H](OC(C)=O)[C@@H](OC(C)=O)[C@@H]1OC(C)=O.CCP(CC)CC.[Au+]` [auranofin, reference compound], the “Percent P.I positive parasites” value in series [4] came out at 100%.
